Experimental data: ChEMBL document CHEMBL4622996, “Discovery of Vixotrigine: A Novel Use-Dependent Sodium Channel Blocker for the Treatment of Trigeminal Neuralgia” (ACS Med Chem Lett, 2020); call rule not given here

Assays:
[1] = Total blood clearance in rat blood at 0.5 mg/kg, iv; type: ADME, organism-based
Rattus norvegicus = assay: Antiinflammatory activity in complete Freund's adjuvant-induced rat model assessed as inhibition of CFA-induced hypersensitivity to pain administered orally at a single dose; type: functional; conditions: po
[2] = Total blood clearance in dog blood at 0.5 mg/kg, iv; type: ADME, organism-based, Canis lupus familiaris
[3] = molecular target: T1, Solute carrier organic anion transporter family member 1B1 (Homo sapiens, UniProt Q9Y6L6); assay: Inhibition of OATP1B1 (unknown origin) upto 100 uM
T1 sequence (Q9Y6L6 whole entry): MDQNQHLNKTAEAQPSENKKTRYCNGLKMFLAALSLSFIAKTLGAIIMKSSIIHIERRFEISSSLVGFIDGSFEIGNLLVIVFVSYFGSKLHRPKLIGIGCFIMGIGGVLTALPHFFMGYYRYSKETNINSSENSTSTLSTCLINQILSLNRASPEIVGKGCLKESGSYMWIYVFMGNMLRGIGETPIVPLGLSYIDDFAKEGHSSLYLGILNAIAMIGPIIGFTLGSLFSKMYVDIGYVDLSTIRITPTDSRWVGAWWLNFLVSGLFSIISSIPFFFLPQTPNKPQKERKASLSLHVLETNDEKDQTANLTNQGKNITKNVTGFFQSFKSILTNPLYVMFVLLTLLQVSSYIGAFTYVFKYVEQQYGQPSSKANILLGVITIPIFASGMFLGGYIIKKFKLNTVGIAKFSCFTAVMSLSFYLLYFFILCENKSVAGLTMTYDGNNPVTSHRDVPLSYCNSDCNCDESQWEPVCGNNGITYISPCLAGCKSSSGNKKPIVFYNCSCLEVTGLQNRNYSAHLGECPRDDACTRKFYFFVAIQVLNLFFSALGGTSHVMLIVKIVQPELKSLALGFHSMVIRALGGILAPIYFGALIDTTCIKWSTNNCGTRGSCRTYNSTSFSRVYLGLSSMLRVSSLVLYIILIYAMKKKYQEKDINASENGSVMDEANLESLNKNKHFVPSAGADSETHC

[4] = molecular target: T2, Amine oxidase [flavin-containing] A (Homo sapiens, UniProt P21397); assay: Inhibition of MAO-A (unknown origin)
T2 sequence (P21397 whole entry): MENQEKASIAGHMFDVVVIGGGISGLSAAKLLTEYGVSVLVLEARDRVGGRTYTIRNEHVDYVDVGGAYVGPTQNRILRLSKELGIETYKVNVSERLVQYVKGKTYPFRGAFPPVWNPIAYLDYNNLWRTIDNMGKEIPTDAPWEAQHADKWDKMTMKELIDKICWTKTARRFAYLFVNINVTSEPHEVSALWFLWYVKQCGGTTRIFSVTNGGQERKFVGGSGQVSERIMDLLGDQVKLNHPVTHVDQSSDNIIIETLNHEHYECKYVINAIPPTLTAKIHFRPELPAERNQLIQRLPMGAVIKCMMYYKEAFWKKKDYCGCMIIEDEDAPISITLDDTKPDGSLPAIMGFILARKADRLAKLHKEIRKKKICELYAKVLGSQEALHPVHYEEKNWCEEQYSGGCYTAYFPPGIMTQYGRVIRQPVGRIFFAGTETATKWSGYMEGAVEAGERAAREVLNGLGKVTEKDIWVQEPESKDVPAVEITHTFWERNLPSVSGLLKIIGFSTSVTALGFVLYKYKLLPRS

[5] = molecular target: ATP-dependent translocase ABCB1 (Homo sapiens, UniProt P08183); assay: Inhibition of P-glycoprotein (unknown origin) upto 100 uM
[6] = Cmax in monkey at 3 mg/kg, po; type: ADME, organism-based, Macaca mulatta; set-up: dose 3 mg/kg, route oral; conditions: rhesus monkey, in vivo
Cytochrome P450 2B6 = molecular target: T3, Cytochrome P450 2B6 (Homo sapiens, UniProt P20813); assay: Inhibition of CYP2B6 (unknown origin); type: ADME
T3 sequence (P20813 whole entry): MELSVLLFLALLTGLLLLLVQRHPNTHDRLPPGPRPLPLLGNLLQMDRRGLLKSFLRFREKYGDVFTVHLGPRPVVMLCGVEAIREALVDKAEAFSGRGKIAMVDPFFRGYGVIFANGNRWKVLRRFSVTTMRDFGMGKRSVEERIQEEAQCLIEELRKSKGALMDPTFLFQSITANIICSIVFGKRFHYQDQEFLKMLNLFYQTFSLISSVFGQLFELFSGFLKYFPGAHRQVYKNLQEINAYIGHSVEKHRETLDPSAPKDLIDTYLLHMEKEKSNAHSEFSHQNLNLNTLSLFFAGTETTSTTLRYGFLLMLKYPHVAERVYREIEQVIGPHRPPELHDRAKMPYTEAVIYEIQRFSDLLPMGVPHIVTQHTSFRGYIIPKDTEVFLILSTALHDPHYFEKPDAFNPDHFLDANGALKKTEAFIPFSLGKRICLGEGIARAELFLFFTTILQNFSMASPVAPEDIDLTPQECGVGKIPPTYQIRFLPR

[7] = Oral bioavailability in dog at 3 mg/kg; type: ADME, organism-based, Canis lupus familiaris; conditions: in vivo
[8] = Ratio of drug level in brain to blood in rat; type: ADME, tissue-based; conditions: read-out: Kbb
Cytochrome P450 2D6 = Cytochrome P450 2D6 (Homo sapiens, UniProt P10635); assay: Inhibition of CYP2D6 (unknown origin); type: ADME
[9] = Aqueous solubility of the compound in FeSSIF; type: physicochemical
[10] = molecular target: T4, Broad substrate specificity ATP-binding cassette transporter ABCG2 (Homo sapiens, UniProt Q9UNQ0); assay: Inhibition of BCRP (unknown origin)
T4 sequence (Q9UNQ0 whole entry): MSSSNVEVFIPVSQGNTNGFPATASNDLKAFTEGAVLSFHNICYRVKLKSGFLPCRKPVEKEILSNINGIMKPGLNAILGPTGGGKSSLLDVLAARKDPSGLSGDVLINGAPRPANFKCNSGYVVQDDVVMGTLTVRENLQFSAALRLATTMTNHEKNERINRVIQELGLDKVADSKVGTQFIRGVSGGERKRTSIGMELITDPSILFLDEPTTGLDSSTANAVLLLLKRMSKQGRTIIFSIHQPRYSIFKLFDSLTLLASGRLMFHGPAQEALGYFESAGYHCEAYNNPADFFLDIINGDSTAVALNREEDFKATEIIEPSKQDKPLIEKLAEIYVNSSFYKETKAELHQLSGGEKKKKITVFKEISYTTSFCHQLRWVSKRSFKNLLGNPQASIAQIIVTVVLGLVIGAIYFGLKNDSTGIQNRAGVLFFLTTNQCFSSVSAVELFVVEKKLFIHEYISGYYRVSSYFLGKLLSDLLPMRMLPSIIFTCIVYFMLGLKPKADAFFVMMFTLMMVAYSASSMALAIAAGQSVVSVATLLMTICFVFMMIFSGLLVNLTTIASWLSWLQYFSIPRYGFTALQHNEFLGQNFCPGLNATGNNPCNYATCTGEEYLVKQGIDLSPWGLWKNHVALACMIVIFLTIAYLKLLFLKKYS

Cytochrome P450 2C19 = Cytochrome P450 2C19 (Homo sapiens, UniProt P33261); assay: Inhibition of CYP2C19 (unknown origin); type: ADME
Chain of Cytochrome P450 2C19 (P33261 whole entry): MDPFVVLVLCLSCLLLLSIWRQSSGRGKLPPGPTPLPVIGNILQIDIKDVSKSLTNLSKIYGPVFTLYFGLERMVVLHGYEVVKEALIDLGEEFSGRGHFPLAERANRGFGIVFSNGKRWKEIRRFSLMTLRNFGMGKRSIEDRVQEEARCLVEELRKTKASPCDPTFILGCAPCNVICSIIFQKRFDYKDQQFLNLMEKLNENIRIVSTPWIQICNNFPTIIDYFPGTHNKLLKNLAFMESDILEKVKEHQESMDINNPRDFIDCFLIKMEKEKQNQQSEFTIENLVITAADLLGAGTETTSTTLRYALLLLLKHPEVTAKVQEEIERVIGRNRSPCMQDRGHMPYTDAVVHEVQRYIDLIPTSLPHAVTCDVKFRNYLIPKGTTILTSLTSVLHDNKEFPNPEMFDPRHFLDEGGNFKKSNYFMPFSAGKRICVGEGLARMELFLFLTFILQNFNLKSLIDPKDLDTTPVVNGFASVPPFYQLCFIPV

Chain of Cytochrome P450 2D6 (P10635 whole entry): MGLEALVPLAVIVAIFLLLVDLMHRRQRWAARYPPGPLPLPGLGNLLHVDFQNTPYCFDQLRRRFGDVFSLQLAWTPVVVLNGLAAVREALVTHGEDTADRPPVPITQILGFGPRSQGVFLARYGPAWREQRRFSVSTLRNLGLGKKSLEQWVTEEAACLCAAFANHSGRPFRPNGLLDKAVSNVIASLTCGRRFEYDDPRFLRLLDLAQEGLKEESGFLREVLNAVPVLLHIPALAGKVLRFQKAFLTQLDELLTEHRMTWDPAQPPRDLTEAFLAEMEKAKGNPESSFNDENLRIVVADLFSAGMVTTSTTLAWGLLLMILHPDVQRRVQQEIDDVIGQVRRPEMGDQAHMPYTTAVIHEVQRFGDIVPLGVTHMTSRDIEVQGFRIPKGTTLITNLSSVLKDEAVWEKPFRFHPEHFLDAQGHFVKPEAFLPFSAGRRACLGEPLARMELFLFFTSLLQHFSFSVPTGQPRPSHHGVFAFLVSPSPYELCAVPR
Chain of ATP-dependent translocase ABCB1 (P08183 whole entry): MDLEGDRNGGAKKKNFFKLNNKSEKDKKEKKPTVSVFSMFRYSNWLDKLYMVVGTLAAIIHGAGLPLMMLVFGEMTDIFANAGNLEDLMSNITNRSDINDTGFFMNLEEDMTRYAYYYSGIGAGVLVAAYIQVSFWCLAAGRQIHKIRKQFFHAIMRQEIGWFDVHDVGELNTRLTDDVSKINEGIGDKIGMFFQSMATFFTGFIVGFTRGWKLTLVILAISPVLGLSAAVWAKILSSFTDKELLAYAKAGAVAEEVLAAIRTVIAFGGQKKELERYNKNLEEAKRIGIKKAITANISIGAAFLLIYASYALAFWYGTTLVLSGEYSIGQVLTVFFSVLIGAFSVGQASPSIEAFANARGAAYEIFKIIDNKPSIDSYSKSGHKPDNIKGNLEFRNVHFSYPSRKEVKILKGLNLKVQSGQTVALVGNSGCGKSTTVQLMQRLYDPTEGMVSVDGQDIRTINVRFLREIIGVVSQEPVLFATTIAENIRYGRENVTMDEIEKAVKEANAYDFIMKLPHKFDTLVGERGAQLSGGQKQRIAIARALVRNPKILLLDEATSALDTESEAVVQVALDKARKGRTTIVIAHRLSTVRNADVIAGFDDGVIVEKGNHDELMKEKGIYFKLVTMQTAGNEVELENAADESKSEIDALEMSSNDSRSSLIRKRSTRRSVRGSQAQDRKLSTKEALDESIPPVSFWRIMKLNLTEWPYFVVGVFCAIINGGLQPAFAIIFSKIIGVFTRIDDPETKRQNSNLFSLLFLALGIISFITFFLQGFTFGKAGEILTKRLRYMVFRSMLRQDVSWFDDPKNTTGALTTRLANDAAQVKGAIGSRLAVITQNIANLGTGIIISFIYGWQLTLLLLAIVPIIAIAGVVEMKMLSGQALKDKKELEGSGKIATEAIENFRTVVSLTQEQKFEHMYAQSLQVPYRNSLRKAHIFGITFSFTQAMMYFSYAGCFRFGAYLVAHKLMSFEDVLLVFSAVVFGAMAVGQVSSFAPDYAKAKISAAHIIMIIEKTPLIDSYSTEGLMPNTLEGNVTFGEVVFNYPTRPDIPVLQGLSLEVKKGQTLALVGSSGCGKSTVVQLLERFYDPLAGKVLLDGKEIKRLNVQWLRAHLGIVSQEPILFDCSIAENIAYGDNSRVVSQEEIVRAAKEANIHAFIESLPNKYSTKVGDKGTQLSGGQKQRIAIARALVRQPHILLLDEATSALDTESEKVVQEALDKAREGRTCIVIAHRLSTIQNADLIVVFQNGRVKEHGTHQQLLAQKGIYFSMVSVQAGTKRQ

clearance [1]: 39 mL/min/kg | clearance [2]: 12 mL/min/kg | inhibition (INH) [3]: Not Active | Ki [4]: > 10 µM | inhibition (INH) [5]: Not Active | Cmax [6]: 730 ng/mL | IC50 (Cytochrome P450 2B6): 31 µM | bioavailability [7]: 57% | Kp [8]: 6.8 | IC50 (Cytochrome P450 2D6): > 100 µM | solubility [9]: 6900 µg/mL | inhibition (INH) [10]: Not Active | IC50 (Cytochrome P450 2C19): 79 µM
SMILES: Cl.NC(=O)[C@@H]1CC[C@H](c2ccc(OCc3ccccc3F)cc2)N1 [RAXATRIGINE HYDROCHLORIDE]
ED50 (Rattus norvegicus): 0.91 mg/kg
